Measured values as given in US11667602B2, “Compounds and their use” (AstraZeneca AB, priority 2020, dated 2023).

Target: T1, human RXFP1 (Homo sapiens, UniProt Q9HBX9)
T1 sequence (Q9HBX9 1-757): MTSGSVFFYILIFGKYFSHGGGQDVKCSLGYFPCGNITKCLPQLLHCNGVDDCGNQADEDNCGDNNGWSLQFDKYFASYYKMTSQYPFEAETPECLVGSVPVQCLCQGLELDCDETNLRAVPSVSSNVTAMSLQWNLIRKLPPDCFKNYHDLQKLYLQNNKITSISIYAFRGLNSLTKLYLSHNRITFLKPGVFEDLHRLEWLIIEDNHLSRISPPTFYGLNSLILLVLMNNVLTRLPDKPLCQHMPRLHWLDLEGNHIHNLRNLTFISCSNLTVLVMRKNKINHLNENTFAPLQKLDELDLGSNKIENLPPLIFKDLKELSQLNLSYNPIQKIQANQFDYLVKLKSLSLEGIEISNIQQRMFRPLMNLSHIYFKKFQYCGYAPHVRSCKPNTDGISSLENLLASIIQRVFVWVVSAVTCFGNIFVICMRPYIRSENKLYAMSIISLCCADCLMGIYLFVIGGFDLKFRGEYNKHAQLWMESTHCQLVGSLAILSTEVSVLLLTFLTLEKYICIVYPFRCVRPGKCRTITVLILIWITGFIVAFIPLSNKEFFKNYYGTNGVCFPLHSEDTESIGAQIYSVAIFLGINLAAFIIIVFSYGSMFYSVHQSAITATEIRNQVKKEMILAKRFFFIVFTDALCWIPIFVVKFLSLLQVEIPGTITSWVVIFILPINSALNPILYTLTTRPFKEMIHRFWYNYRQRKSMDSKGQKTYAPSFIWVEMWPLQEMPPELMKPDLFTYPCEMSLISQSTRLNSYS
Test: RXFP1 Hu cAMP (Test A)
Assay type: cell-based
Design: expressed in transfected cells; host or cells: Jump-In T-REx CHO-K1 cells (ThermoFisher), induced with 10 ng/ml doxycycline for 24 h
Conditions: RXFP1 Hu cAMP; for EC50: read-out: Test A EC50
How it was run: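 Read-out is HTRF signal, inversely proportional to cAMP, converted to cAMP amount by standard curve. Stimulation occurred in inducible CHO-K1 cells expressing the human receptor with phosphodiesterases blocked by 0.5 mM IBMX.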

| Compound | Test A Sinf | EC50 |
| --- | --- | --- |
| COc1ccc(Oc2ccc(C(=O)O)cc2)cc1C(=O)N[C@H]1[C@@H](C(=O)Nc2cccc(S(=O)(=O)C(F)(F)F)c2)[C@@H]2C=C[C@H]1C2 (racemic) [Example 427] | 86% | 680 nM |
| COc1cc(F)c(OCc2cccc(CC(=O)O)c2)cc1C(=O)N[C@H]1[C@@H](C(=O)Nc2cccc(S(=O)(=O)C(F)(F)F)c2)[C@@H]2C=C[C@H]1C2 (racemic) [Example 453] | 155% | 2000 nM |
| COc1cc(F)c(O[C@H]2CC[C@@](C)(C(=O)O)CC2)cc1C(=O)NC1C(O)CCC1C(=O)Nc1cccc(S(=O)(=O)C(F)(F)F)c1 (single isomer, unassigned) [Example 528, (1R,4s)-4-(2-Fluoro-5-(((1S*,2S*,5S*)-2-hydroxy-5-((3-((trifluoromethyl)sulfonyl)phenyl)carbamoyl)cyclopentyl)carbamoyl)-4-methoxyphenoxy)-1-methylcyclohexane-1-carboxylic acid] |  | > 40000 nM |
| COc1cc(F)c(OC2CCC(CO)(C(=O)O)CC2)cc1C(=O)N[C@H]1C[C@H](OC)C[C@H]1C(=O)NCC(C)(C)C (relative stereo) [Example 549, (1R,4s)-4-(2-Fluoro-4-methoxy-5-(((1S*,2R*,4R*)-4-methoxy-2-(neopentylcarbamoyl)cyclopentyl)carbamoyl)phenoxy)-1-(hydroxymethyl)cyclohexane-1-carboxylic acid] | 94% | 1300 nM |
| (1R,4s)-4-(2-Fluoro-4-methoxy-5-(((1S*,2R*,4R*)-4-methoxy-2-(neopentylcarbamoyl)cyclopentyl)carbamoyl)phenoxy)-1-methylcyclohexane-1-carboxylic acid [Example 547] | 114% |  |
| (1R,4s)-4-(2-Fluoro-4-methoxy-5-(((3S*,4R*)-4-(((1-methylcyclobutyl)methyl)carbamoyl)tetrahydrofuran-3-yl)carbamoyl)phenoxy)-1-(hydroxymethyl)cyclohexane-1-carboxylic acid [Example 581] | 94% |  |
| (1R,4s)-4-(2-Fluoro-4-methoxy-5-(((1S*,2R*)-2-(neopentylcarbamoyl)cyclobutyl)carbamoyl)phenoxy)-1-methylcyclohexane-1-carboxylic acid [Example 569] | 97% |  |
| COc1cc(F)c(O[C@H]2CC[C@@](C)(C(=O)O)CC2)cc1C(=O)NC1COCCC1C(=O)Nc1ccc(F)c(S(F)(F)(F)(F)F)c1 (single isomer, unassigned) [Example 574, (1R,4s)-4-(2-Fluoro-5-(((3S*,4S*)-4-((4-fluoro-3-(pentafluoro-λ6-sulfaneyl)phenyl)carbamoyl)tetrahydro-2H-pyran-3-yl)carbamoyl)-4-methoxyphenoxy)-1-methylcyclohexane-1-carboxylic acid] |  | > 40000 nM |
| COc1cc(F)c(OC2CC(CC(=O)O)C2)cc1C(=O)NC1C2CCC(C2)C1C(=O)Nc1cccc(S(=O)(=O)C(F)(F)F)c1 [Example 474, 2-((1R,3r)-3-(2-Fluoro-4-methoxy-5-(((1R,2R,3S,4S)-3-((3-((trifluoromethyl)sulfonyl)phenyl)carbamoyl)bicyclo[2.2.1]heptan-2-yl)carbamoyl)phenoxy)cyclobutyl)acetic acid] | 118% | 650 nM |
| COc1cc(F)c(O[C@H]2CC[C@@](CO)(C(=O)O)CC2)cc1C(=O)NC1CC(OC)CC1C(=O)NCC(C)(C)C (single isomer, unassigned) [Example 548, (1R,4s)-4-(2-Fluoro-4-methoxy-5-(((1S*,2R*,4R*)-4-methoxy-2-(neopentylcarbamoyl)cyclopentyl)carbamoyl)phenoxy)-1-(hydroxymethyl)cyclohexane-1-carboxylic acid] | 117% | 21000 nM |
| COc1cc(F)c(OCc2ccc(C(C)(C)C(=O)O)cc2)cc1C(=O)N[C@H]1[C@@H](C(=O)Nc2cccc(S(=O)(=O)C(F)(F)F)c2)[C@@H]2C=C[C@H]1C2 (racemic) [Example 452] | 104% | 980 nM |
| COc1cc(F)c(OC2CCC(C)(C(=O)O)CC2)cc1C(=O)NC1COCC1C(=O)Nc1ccc(F)c(S(F)(F)(F)(F)F)c1 [Example 564, (1R,4s)-4-(2-Fluoro-5-(((3S*,4R*)-4-((4-fluoro-3-(pentafluoro-λ6-sulfaneyl)phenyl)carbamoyl)tetrahydrofuran-3-yl)carbamoyl)-4-methoxyphenoxy)-1-methylcyclohexane-1-carboxylic acid] |  | > 40000 nM |
| COc1cc(F)c(O[C@@H]2CC[C@H](C(=O)O)OC2)cc1C(=O)NC1[C@H]2CC[C@H](C2)[C@@H]1C(=O)Nc1cccc(S(=O)(=O)C(F)(F)F)c1 (mixture of isomers) [Example 442] | 103% | 580 nM |
| (1R,4s)-4-(2-Fluoro-4-methoxy-5-(((3S*,4R*)-4-(neopentylcarbamoyl)tetrahydrofuran-3-yl)carbamoyl)phenoxy)-1-(hydroxymethyl)cyclohexane-1-carboxylic acid [Example 579] | 120% |  |

Results, then the compound that gave them:

| Test A Sinf | EC50 | Compound |
| --- | --- | --- |
| 91% | 600 nM | COc1cc(F)c(O[C@H]2CC[C@@](C)(C(=O)O)CC2)cc1C(=O)N[C@@H]1[C@H]2CC[C@H](C2)[C@@H]1C(=O)N[C@H]1CCCC1(C)C (relative stereo) [Example 504, (1S,4s)-4-(5-(((1S,2R,3S,4R)-3-(((R*)-2,2-Dimethylcyclopentyl)carbamoyl)bicyclo[2.2.1]heptan-2-yl)carbamoyl)-2-fluoro-4-methoxyphenoxy)-1-methylcyclohexane-1-carboxylic acid] |
| 95% | 11 nM | COc1cc(F)c(O[C@H]2CC[C@@](C)(C(=O)O)CC2)cc1C(=O)N[C@@H]1CCCCC[C@@H]1C(=O)Nc1cccc(S(=O)(=O)C(F)(F)F)c1 (racemic) [Example 354] |
| 78% |  | COc1cc(F)c(O[C@@H]2C[C@@H]3[C@H](C2)[C@H]3C(=O)O)cc1C(=O)N[C@@H]1[C@H]2CC[C@H](C2)[C@@H]1C(=O)NCC1(C)CCC1 (racemic) [Example 425, (1RS,3SR,5SR,6RS)-3-(2-Fluoro-4-methoxy-5-(((1S,2R,3S,4R)-3-(((1-methylcyclobutyl)methyl)carbamoyl)bicyclo[2.2.1]heptan-2-yl)carbamoyl)phenoxy)bicyclo[3.1.0]hexane-6-carboxylic acid] |
| 99% | 260 nM | CC1(CNC(=O)[C@H]2[C@@H]3CC[C@@H](C3)[C@H]2NC(=O)c2cc(O[C@H]3CC[C@@](C)(C(=O)O)CC3)cc3cccnc23)CCC1 [Example 407] |
| 118% | 520 nM | COc1cc(F)c(O[C@H]2CC[C@@](C)(C(=O)O)CC2)cc1C(=O)N[C@@H]1[C@H]2CC[C@H](C2)[C@@H]1C(=O)NCC1(OC)CCC1 [Example 593, (1S,4s)-4-(2-Fluoro-4-methoxy-5-(((1S,2R,3S,4R)-3-(((1-methoxycyclobutyl)methyl)carbamoyl)bicyclo[2.2.1]heptan-2-yl)carbamoyl)phenoxy)-1-methylcyclohexane-1-carboxylic acid] |
| 99% | 560 nM | COc1cc(C#N)c(O[C@H]2CC[C@@](C)(C(=O)O)CC2)cc1C(=O)N[C@@H]1[C@H]2CC[C@H](C2)[C@@H]1C(=O)N[C@@H](C)C(C)(C)C [Example 119] |
| 104% | 44 nM | COc1cc(C#N)c(O[C@H]2CC[C@@](C)(C(=O)O)CC2)cc1C(=O)N[C@@H]1[C@H]2CC[C@H](C2)[C@@H]1C(=O)N[C@H]1CCCC[C@H]1CC(F)(F)F [Example 134] |
